Measured values reported in patent publication US4882349A, “Pyrrolacetic amides having antiinflammatory activity” (priority 1982, dated 1989).

Legend:
[1] = system: carrageenin-induced oedema; assay: carrageenin-induced oedema test (anti-inflammatory activity); assay type: in vivo, albino male Wistar rats
[2] = system: mucus secreted by the respiratory airway; assay: antisecretory activity, respiratory mucus secretion; assay type: in vivo, albino male New Zealand rabbits; details: vs control group
In short: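 Male New Zealand rabbits, groups of four, urethane-anaesthetised (1.1 g/kg i.p.) with tracheal Y cannula breathing 100%-humidity air at 39° C. Mucus collected and measured 3 and 6 h post-dose; change expressed as percent difference from vehicle controls.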

[3] = system: cough provoked by mechanical stimulation of the tracheal bifurcation mucosa; assay: antitussive activity, mechanically provoked coughing; assay type: in vivo, albino Guinea-pigs; details: 1 h after administration
In short: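 Albino guinea-pigs (300 g) with a tracheal Y cannula; coughing provoked by mechanically stimulating the tracheal bifurcation mucosa with a boar's hair.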

[4] = system: phenyl-p-quinone-induced writhing (abdominal contractions); assay: phenylquinone-induced writhing test (analgesic activity), compound given 30 min before phenyl-p-quinone; assay type: in vivo, male Wistar rats
In short: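 Male Wistar rats (110±5 g), fasted 14 h, received test compounds orally or parenterally in 0.5% CMC/saline vehicle 30 min before 2 ml of 0.36% phenyl-p-quinone in 5% ethanol.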

[5] = 50 mg/Kg, Table IV (route not given), 2 h
[6] = 50 mg/Kg, Table IV (route not given), 4 h
[7] = 50 mg/Kg, Table IV (route not given), 6 h
[8] = 50 mg/Kg, Table IV (route not given), 24 h
[9] = 50 mg/Kg, Table IV (route not given), 48 h
[10] = 50 mg/Kg, Table IV (route not given), 72 h
[11] = 100 mg/Kg, Table IV (route not given), 2 h
[12] = 100 mg/Kg, Table IV (route not given), 4 h
[13] = 100 mg/Kg, Table IV (route not given), 6 h
[14] = 100 mg/Kg, Table IV (route not given), 24 h
[15] = 100 mg/Kg, Table IV (route not given), 48 h
[16] = 100 mg/Kg, Table IV (route not given), 72 h

Cc1ccc(C(=O)c2ccc(CC(=O)N3CCN(C)CC3)n2C)cc1 [Compound 3-b, 1-methyl-5-p-toluoylpyrrole-2-N-[(4-methyl)-1-piperazinyl] acetamide]
oedema % inhibition ([1]; 25 mg/Kg per os, 2 h): 28.1%
oedema % inhibition ([1]; 25 mg/Kg per os, 4 h): 33.4%
oedema % inhibition ([1]; 25 mg/Kg per os, 6 h): 30.0%
oedema % inhibition ([1]; 25 mg/Kg per os, 24 h): 10.2%
oedema % inhibition ([1]; 25 mg/Kg per os, 48 h): 0.0%
oedema % inhibition ([1]; 25 mg/Kg per os, 72 h): 0.0%
oedema % inhibition ([1]; 25 mg/Kg, Table IV (route not given), 2 h): 33.2%
oedema % inhibition ([1]; 25 mg/Kg, Table IV (route not given), 4 h): 36.0%
oedema % inhibition ([1]; 25 mg/Kg, Table IV (route not given), 6 h): 30.0%
oedema % inhibition ([1]; 25 mg/Kg, Table IV (route not given), 24 h): 10.0%
oedema % inhibition ([1]; 25 mg/Kg, Table IV (route not given), 48 h): 0.0%
oedema % inhibition ([1]; 25 mg/Kg, Table IV (route not given), 72 h): 0.0%
oedema % inhibition ([1]; 50 mg/Kg per os, 2 h): 49.1%
oedema % inhibition ([1]; 50 mg/Kg per os, 4 h): 48.0%
oedema % inhibition ([1]; 50 mg/Kg per os, 6 h): 49.7%
oedema % inhibition ([1]; 50 mg/Kg per os, 24 h): 15.2%
oedema % inhibition ([1]; 50 mg/Kg per os, 48 h): 0.0%
oedema % inhibition ([1]; 50 mg/Kg per os, 72 h): 0.0%
oedema % inhibition [1, 5]: 52.3%
oedema % inhibition [1, 6]: 55.6%
oedema % inhibition [1, 7]: 58.9%
oedema % inhibition [1, 8]: 11.2%
oedema % inhibition [1, 9]: 0.0%
oedema % inhibition [1, 10]: 0.0%
oedema % inhibition ([1]; 100 mg/Kg per os, 2 h): 69.7%
oedema % inhibition ([1]; 100 mg/Kg per os, 4 h): 68.0%
oedema % inhibition ([1]; 100 mg/Kg per os, 6 h): 69.0%
oedema % inhibition ([1]; 100 mg/Kg per os, 24 h): 35.0%
oedema % inhibition ([1]; 100 mg/Kg per os, 48 h): 8.9%
oedema % inhibition ([1]; 100 mg/Kg per os, 72 h): 0.0%
oedema % inhibition [1, 11]: 73.4%
oedema % inhibition [1, 12]: 77.1%
oedema % inhibition [1, 13]: 72.9%
oedema % inhibition [1, 14]: 25.6%
oedema % inhibition [1, 15]: 1.4%
oedema % inhibition [1, 16]: 0.0%
% difference in mucus secretion ([2]; 50 mg/Kg i.p., 3 h): -12%
% difference in mucus secretion ([2]; 50 mg/Kg i.p., 6 h): -10%
% difference in mucus secretion ([2]; 50 mg/Kg per os, 3 h): -9%
% difference in mucus secretion ([2]; 50 mg/Kg per os, 6 h): -5%
% difference in mucus secretion ([2]; 75 mg/Kg i.p., 3 h): -25%
% difference in mucus secretion ([2]; 75 mg/Kg i.p., 6 h): -22%
% difference in mucus secretion ([2]; 75 mg/Kg per os, 3 h): -18%
% difference in mucus secretion ([2]; 75 mg/Kg per os, 6 h): -10%
% difference in mucus secretion ([2]; 100 mg/Kg i.p., 3 h): -40%
% difference in mucus secretion ([2]; 100 mg/Kg i.p., 6 h): -36%
% difference in mucus secretion ([2]; 100 mg/Kg per os, 3 h): -36%
% difference in mucus secretion ([2]; 100 mg/Kg per os, 6 h): -30%
% inhibition, cough amplitude ([3]; 50 mg/Kg i.p.): 20%
% inhibition, cough frequency ([3]; 50 mg/Kg i.p.): 28%
% inhibition, cough amplitude ([3]; 50 mg/Kg per os): 18%
% inhibition, cough frequency ([3]; 50 mg/Kg per os): 29%
% inhibition, cough amplitude ([3]; 75 mg/Kg i.p.): 30%
% inhibition, cough frequency ([3]; 75 mg/Kg i.p.): 20%
% inhibition, cough amplitude ([3]; 75 mg/Kg per os): 30%
% inhibition, cough frequency ([3]; 75 mg/Kg per os): 18%
% inhibition, cough amplitude ([3]; 100 mg/Kg i.p.): 52%
% inhibition, cough frequency ([3]; 100 mg/Kg i.p.): 40%
% inhibition, cough amplitude ([3]; 100 mg/Kg per os): 45%
% inhibition, cough frequency ([3]; 100 mg/Kg per os): 39%
% Protection ([4]; 5 mg/Kg i.p.): 28.0%
% Protection ([4]; 5 mg/Kg per os): 20.0%
% Protection ([4]; 10 mg/Kg i.p.): 50.0%
% Protection ([4]; 10 mg/Kg per os): 52.0%
% Protection ([4]; 20 mg/Kg i.p.): 80.3%
% Protection ([4]; 20 mg/Kg per os): 78.0%

Cc1ccc(C(=O)c2ccc(CC(=O)O)n2C)cc1 [Tolmetin Na.2H2 O, 1-methyl-5-p-toluoylpyrrole-2-acetic acid, reference compound]
oedema % inhibition ([1]; 10 mg/Kg per os, 2 h): 44.8%
oedema % inhibition ([1]; 10 mg/Kg per os, 4 h): 29.2%
oedema % inhibition ([1]; 10 mg/Kg per os, 6 h): 10.2%
oedema % inhibition ([1]; 10 mg/Kg per os, 24 h): 0.0%
oedema % inhibition ([1]; 10 mg/Kg per os, 48 h): 0.0%
oedema % inhibition ([1]; 10 mg/Kg per os, 72 h): 0.0%
oedema % inhibition ([1]; 10 mg/Kg, Table IV (route not given), 2 h): 46.0%
oedema % inhibition ([1]; 10 mg/Kg, Table IV (route not given), 4 h): 39.1%
oedema % inhibition ([1]; 10 mg/Kg, Table IV (route not given), 6 h): 20.0%
oedema % inhibition ([1]; 10 mg/Kg, Table IV (route not given), 24 h): 0.0%
oedema % inhibition ([1]; 10 mg/Kg, Table IV (route not given), 48 h): 0.0%
oedema % inhibition ([1]; 10 mg/Kg, Table IV (route not given), 72 h): 0.0%
oedema % inhibition ([1]; 50 mg/Kg per os, 2 h): 48.0%
oedema % inhibition ([1]; 50 mg/Kg per os, 4 h): 55.3%
oedema % inhibition ([1]; 50 mg/Kg per os, 6 h): 55.2%
oedema % inhibition ([1]; 50 mg/Kg per os, 24 h): 0.0%
oedema % inhibition ([1]; 50 mg/Kg per os, 48 h): 0.0%
oedema % inhibition ([1]; 50 mg/Kg per os, 72 h): 0.0%
oedema % inhibition [1, 5]: 53.8%
oedema % inhibition [1, 6]: 60.0%
oedema % inhibition [1, 7]: 58.4%
oedema % inhibition [1, 8]: 0.0%
oedema % inhibition [1, 9]: 0.0%
oedema % inhibition [1, 10]: 0.0%
oedema % inhibition ([1]; 100 mg/Kg per os, 2 h): 50.8%
oedema % inhibition ([1]; 100 mg/Kg per os, 4 h): 57.3%
oedema % inhibition ([1]; 100 mg/Kg per os, 6 h): 54.8%
oedema % inhibition ([1]; 100 mg/Kg per os, 24 h): 9.7%
oedema % inhibition ([1]; 100 mg/Kg per os, 48 h): 7.8%
oedema % inhibition ([1]; 100 mg/Kg per os, 72 h): 0.0%
oedema % inhibition [1, 11]: 57.0%
oedema % inhibition [1, 12]: 66.0%
oedema % inhibition [1, 13]: 67.1%
oedema % inhibition [1, 14]: 8.7%
oedema % inhibition [1, 15]: 2.0%
oedema % inhibition [1, 16]: 0.0%
% difference in mucus secretion ([2]; 50 mg/Kg i.p., 3 h): +3%
% difference in mucus secretion ([2]; 50 mg/Kg i.p., 6 h): +7%
% difference in mucus secretion ([2]; 50 mg/Kg per os, 3 h): +5%
% difference in mucus secretion ([2]; 50 mg/Kg per os, 6 h): +10%
% difference in mucus secretion ([2]; 75 mg/Kg i.p., 3 h): +8%
% difference in mucus secretion ([2]; 75 mg/Kg i.p., 6 h): +10%
% difference in mucus secretion ([2]; 75 mg/Kg per os, 3 h): 0.0%
% difference in mucus secretion ([2]; 75 mg/Kg per os, 6 h): +2%
% difference in mucus secretion ([2]; 100 mg/Kg i.p., 3 h): +7%
% difference in mucus secretion ([2]; 100 mg/Kg i.p., 6 h): 0.0%
% difference in mucus secretion ([2]; 100 mg/Kg per os, 3 h): +5%
% difference in mucus secretion ([2]; 100 mg/Kg per os, 6 h): 0.0%
% inhibition, cough amplitude ([3]; 50 mg/Kg i.p.): 0%
% inhibition, cough frequency ([3]; 50 mg/Kg i.p.): 0%
% inhibition, cough amplitude ([3]; 50 mg/Kg per os): 0%
% inhibition, cough frequency ([3]; 50 mg/Kg per os): 0%
% inhibition, cough amplitude ([3]; 75 mg/Kg i.p.): 0%
% inhibition, cough frequency ([3]; 75 mg/Kg i.p.): 10%
% inhibition, cough amplitude ([3]; 75 mg/Kg per os): 7%
% inhibition, cough frequency ([3]; 75 mg/Kg per os): 0%
% inhibition, cough amplitude ([3]; 100 mg/Kg i.p.): 7%
% inhibition, cough frequency ([3]; 100 mg/Kg i.p.): 10%
% inhibition, cough amplitude ([3]; 100 mg/Kg per os): 5%
% inhibition, cough frequency ([3]; 100 mg/Kg per os): 5%
% Protection ([4]; 10 mg/Kg per os): 40.0%
